{"source": "patent US20240058459A1", "about": "(Ashvattha Therapeutics, Inc., priority 2019, published 2024)", "key": {"[1]": {"details": "rat, in vivo, 40.21 mg/kg"}, "Toxicokinetics in rats": {"assay": "Toxicokinetics in rats", "assay_type": "in vivo, Sprague-Dawley rats", "details": "D-4517 12 mg/kg daily IP, sunitinib 30 mg/kg daily oral", "quoted_text": "Toxicokinetic data was collected in rats. […] Blood samples were collected, and plasma drug concentrations were determined. Noncompartmental toxicokinetic parameters were estimated."}, "TIE II": {"target": "TIE II (Homo sapiens (Human), UniProt Q02763)", "sequence (Q02763 23-1124)": "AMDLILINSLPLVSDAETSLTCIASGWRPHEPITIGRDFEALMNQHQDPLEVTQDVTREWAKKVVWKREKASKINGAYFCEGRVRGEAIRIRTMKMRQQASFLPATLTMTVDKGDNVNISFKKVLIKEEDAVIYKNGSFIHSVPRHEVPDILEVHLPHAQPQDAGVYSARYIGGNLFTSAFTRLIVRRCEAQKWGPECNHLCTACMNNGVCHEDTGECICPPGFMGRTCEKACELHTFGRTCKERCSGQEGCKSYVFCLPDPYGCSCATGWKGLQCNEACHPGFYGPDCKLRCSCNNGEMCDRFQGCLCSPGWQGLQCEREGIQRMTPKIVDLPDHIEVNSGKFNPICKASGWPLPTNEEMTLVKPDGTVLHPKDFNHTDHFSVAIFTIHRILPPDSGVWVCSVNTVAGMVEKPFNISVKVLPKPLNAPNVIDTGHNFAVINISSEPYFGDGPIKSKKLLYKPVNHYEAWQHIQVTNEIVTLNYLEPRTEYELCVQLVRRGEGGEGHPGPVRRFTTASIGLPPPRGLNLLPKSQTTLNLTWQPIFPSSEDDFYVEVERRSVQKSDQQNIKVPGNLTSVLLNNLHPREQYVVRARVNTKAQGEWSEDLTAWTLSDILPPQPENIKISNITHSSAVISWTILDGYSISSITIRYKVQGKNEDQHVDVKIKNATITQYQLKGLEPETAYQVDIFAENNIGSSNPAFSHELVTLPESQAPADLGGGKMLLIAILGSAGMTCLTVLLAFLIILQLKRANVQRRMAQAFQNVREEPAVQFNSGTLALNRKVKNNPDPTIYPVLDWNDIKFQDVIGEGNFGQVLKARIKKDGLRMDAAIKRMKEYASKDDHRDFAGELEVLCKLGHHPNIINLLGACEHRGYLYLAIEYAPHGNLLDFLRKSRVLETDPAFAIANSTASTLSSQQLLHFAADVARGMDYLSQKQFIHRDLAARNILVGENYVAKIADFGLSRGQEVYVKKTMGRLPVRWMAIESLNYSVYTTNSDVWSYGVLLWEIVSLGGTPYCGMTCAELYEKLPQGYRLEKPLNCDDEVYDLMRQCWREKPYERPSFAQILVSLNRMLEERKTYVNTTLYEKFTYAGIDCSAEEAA", "assay": "TIE II inhibition, dissociation constant", "assay_type": "binding"}, "VEGFR2": {"target": "VEGFR2 (Homo sapiens (Human), UniProt P35968)", "sequence (P35968 20-1356)": "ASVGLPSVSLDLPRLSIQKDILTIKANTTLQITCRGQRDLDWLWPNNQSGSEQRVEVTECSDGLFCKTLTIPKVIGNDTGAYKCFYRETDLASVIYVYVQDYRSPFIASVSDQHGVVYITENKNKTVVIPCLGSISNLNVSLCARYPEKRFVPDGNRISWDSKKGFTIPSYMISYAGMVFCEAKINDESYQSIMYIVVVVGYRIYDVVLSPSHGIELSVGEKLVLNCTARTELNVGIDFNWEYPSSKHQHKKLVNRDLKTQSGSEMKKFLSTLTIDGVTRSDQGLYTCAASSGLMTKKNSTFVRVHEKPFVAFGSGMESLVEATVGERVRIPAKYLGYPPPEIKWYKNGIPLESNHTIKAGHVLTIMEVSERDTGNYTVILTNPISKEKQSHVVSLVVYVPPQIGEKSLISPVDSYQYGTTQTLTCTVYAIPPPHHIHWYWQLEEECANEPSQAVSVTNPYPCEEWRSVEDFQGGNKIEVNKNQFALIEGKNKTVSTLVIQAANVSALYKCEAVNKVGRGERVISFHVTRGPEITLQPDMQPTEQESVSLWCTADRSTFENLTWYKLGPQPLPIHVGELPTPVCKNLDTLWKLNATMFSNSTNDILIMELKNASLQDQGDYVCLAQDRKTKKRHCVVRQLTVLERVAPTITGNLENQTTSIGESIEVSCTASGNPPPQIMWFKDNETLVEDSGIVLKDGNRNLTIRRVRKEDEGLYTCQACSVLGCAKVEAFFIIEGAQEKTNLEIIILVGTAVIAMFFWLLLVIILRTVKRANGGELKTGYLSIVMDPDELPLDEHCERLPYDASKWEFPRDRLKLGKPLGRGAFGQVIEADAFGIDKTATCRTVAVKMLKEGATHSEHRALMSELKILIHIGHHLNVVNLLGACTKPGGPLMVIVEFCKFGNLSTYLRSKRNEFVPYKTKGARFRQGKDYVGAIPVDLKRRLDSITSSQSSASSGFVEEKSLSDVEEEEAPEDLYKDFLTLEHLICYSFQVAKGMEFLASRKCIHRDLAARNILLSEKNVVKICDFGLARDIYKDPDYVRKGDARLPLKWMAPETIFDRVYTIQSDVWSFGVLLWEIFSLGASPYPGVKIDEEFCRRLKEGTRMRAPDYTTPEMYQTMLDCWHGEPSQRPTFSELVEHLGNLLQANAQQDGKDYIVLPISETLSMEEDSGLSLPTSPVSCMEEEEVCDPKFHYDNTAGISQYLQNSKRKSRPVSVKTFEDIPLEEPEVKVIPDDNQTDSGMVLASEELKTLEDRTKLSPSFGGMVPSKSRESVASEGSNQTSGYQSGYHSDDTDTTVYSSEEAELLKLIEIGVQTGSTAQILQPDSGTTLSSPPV", "assay": "In vitro kinase binding assay (VEGFR2)", "method": "All reactions performed in polypropylene 384-well plate. Each was a final volume of 0.02 ml."}, "[2]": {"test_system": "choroidal neovascularization (CNV)", "assay": "Laser-induced CNV mouse model, single IP dose, duration of efficacy", "assay_type": "in vivo, C57BL/6 mice", "details": "single IP dose (aflibercept IVT)"}, "[3]": {"test_system": "choroidal neovascularization (CNV)", "assay": "Laser-induced CNV mouse model, single IV dose", "details": "single dose 24 hr after laser (IV; aflibercept IVT 40 μg); CNV area 7 days after laser", "quoted_text": "As a positive control group, a cohort of mice were administered aflibercept (EYLEA®) intravitreally (IVT; 1 μL, 40 μg). The CNV area was measured 7 days after laser treatment by both fluorescein angiography and flat-mounts of the sclera-choroid/RPE complexes stained with isolectin IB4."}, "[4]": {"test_system": "choroidal neovascular (CNV) lesions", "assay": "Localization and persistence in CNV lesions after systemic administration, laser-induced CNV mouse model", "assay_type": "in vivo, C57BL/6 mice", "method": "Two studies were conducted in C57BL/6 mice (n=5/group) administered intravenously 100 μL of D-ICG or vehicle control. In the first study, mice were administered D-ICG or vehicle control at 1, 3, 7, or 14 days post-laser and eyes were analyzed by optical coherence tomography (OCT) with ICG imaging at 4 or 24 hr post-dose. Flat-mounts of the sclera-choroid/retinal pigment epithelial (RPE) complexes were stained by fluorescently tagged isolectin and IBA-1.\nThe second study evaluated the localization and persistence of dendrimer conjugates in the CNV lesion. In the second study, mice were administered intravenously 100 μL of D-ICG and 100 μL of D-TRITC (1 hr after D-ICG) or vehicle control at 24 hr post-laser. Mice analyzed and sacrificed at 4, 7, 14, 21, and 28 days post-dose (n=5/group). For control group, free ICG (1.23 mg/mL), 100 μL, IV dosed 24 hr post-laser and mice analyzed and sacrificed at 2, 4, 7, and 14 days post-dose (n=5/group). Eyes analyzed by optical coherence tomography (OCT) with ICG imaging. Flat-mounts of the sclera-choroid/retinal pigment epithelial (RPE) complexes were stained by fluorescently tagged IBA-1 alone."}}, "note": "pKd: −log10 of the molar value."}
{"compound": "CCN(CC)CCNC(=O)c1c(C)[nH]c(/C=C2\\C(=O)Nc3ccc(F)cc32)c1C", "note": "[Sunitinib Malate, reference compound]", "values": [{"measurement": "overall tolerability", "setting": "[1]", "result": "various clinical and pathological changes in addition to mortality in female rats"}]}
{"compound": "CCN(CC)CCNC(=O)c1c(C)[nH]c(/C=C2\\C(=O)Nc3ccc(F)cc32)c1C", "note": "[free sunitinib, sunitinib]", "values": [{"measurement": "AUC estimates, sunitinib compared to D-4517", "setting": "Toxicokinetics in rats", "result": "higher"}]}
{"compound": "COC(=O)Nc1nc2ccc(Oc3ccc(NC(=O)Nc4cc(C(F)(F)F)ccc4OCCCCN=[N+]=[N-])cc3)cc2[nH]1", "note": "[Structure V]", "values": [{"measurement": "pKd", "setting": "TIE II", "result": "~8.06"}]}
{"compound": "Cc1[nH]c(/C=C2\\C(=O)Nc3ccc(F)cc32)c(C)c1C(=O)NCCNC(=O)CCOCCOCCOCCN=[N+]=[N-]", "values": [{"measurement": "pKd", "setting": "VEGFR2", "result": 9.00}]}
{"compound": "aflibercept", "values": [{"measurement": "CNV area", "setting": "[2]; day 7 post-treatment", "result": "Significant reduction in the CNV area"}, {"measurement": "CNV area", "setting": "[2]; day 14 post-treatment", "result": "not sustained"}, {"measurement": "reduction in CNV area compared with vehicle control", "setting": "[3]", "result": "Statistically significant reductions in the CNV area"}]}
{"compound": "CC1(C)C(/C=C/C=C/C=C/C=C2\\N(CCCCS(=O)(=O)[O-])c3ccc4ccccc4c3C2(C)C)=[N+](CCCCS(=O)(=O)[O-])c2ccc3ccccc3c21.[Na+]", "note": "[free ICG, indocyanine green]", "values": [{"measurement": "time at which no longer present in the lesions", "setting": "[4]; free ICG control groups, IV 24 hr post-laser", "result": "7-14 days post-laser"}, {"measurement": "uptake/distribution in CNV lesions", "setting": "[4]; systemic administration, within 24 hr after dosing", "result": "distributes non-specifically"}]}
